# Assays:
# clinical = details: human, in vivo, iv
# Method: The pharmacokinetics of intravenously administered cilansetron have also been evaluated in several studies. In a randomized, double-blind, placebo controlled, rising dose, crossover study in 24 male subjects, aged 23-37 years, the single-dose pharmacokinetics of IV cilansetron were evaluated over a 4 mg to 16 mg dose range. Subjects received, at intervals of 1 week, single doses of 4, 8, and 16 mg IV cilansetron in ascending order and a randomized placebo. Infusion times ranged from 15-30 minutes. All doses were administered under fasted conditions.
# In a randomized, double-blind, placebo controlled, rising dose, crossover study, 24 male subjects (aged 23-37 years) received single doses of 4, 8, and 16 mg IV cilansetron in ascending order and a randomized placebo, infused over 15-30 minutes. All doses were administered under fasted conditions. FIG. 14 and FIG. 15 present box plots of cilansetron AUC(0-inf) and dose-normalized AUC(0-inf) values (normalized to a 1 mg dose), respectively, and Table 2.7.2.3.13 presents descriptive statistics for the results of statistical pairwise comparisons of dose-normalized parameters between doses.
# healthy subjects = test: Study S.241.2.106: colonic motility index; format: in vivo, human; details: for colonic motility index, Comparison to Placebo: Ratio: ANOVA; for colonic motility index: arith. mean
# Method: The effect of cilansetron on colonic motility was evaluated in a randomized, double-blind, placebo-controlled, 3-way crossover study in 12 healthy male and female subjects (ITT population), aged 24-34 years. Subjects received cilansetron 4 mg, cilansetron 8 mg, or placebo orally TID for 7 days during each of the treatment periods, with a 7-day washout between periods. Colonic motility assessments were done on the last day of each treatment period, around the time of the last dose. Subjects were fasted for 12 hours prior to start of colonic assessments. Colonic motor activity was recorded from 30 minutes prior to dosing until 240 minutes postdose. A high-calorie meal was administered at 1 hour postdose and 1 mg neostigmine was administered intramuscularly at 2.5 hours postdose. The main objective of the assessments was to establish whether cilansetron was able to reduce colonic motor activity after meal ingestion and after neostigmine injection. The main parameter of interest was the motility index, which was measured in intervals of ten minutes for a total period of 150 minutes postprandially. The time intervals of major interest were the 30-minute interval after start of meal ingestion (91-120 minutes) and the 30-minute interval after neostigmine injection (181-210 minutes). An ANOVA was used to compare the motility indices between treatments.
# [1] = test system: diarrhea-predominant IBS subjects; test: Study S241.3.006: IBS-QOL; format: in vivo, human; details: for Percentage of Subjects Who Worsened from Baseline: IBS-QOL Overall Score: S241.3.006, 2 mg TID, observed value
# Source text: Studies S24 1.3.OO6, S24 1.3.0 1 1, and S24 1.3.009 used the following efficacy measurements: • The subjects answered the following three questions with “yes” or “no” using a phone diary at the end of each week: • a) During the last week, did you experience adequate relief of your IBS symptoms, such as abdominal pain, abdominal discomfort, abnormal bowel habits? • b) During the last week, did you experience adequate relief of your abdominal pain and/or discomfort? • c) During the last week, did you experience adequate relief of your abnormal bowel habits? • The subjects rated the following symptoms using the phone diary at the end of each day: • abdominal pain/discomfort (five-point scale); • stool consistency (seven-point Bristol Stool Scale); • stool frequency (number of bowel movements each day); • urgency (five-point scale); • straining (yes or no); • feeling of incomplete defecation (yes or no); • bloating or feeling of abdominal distension (five-point scale). • In Studies S241 A006 and S241.3.009, subjects completed the IBS-QOL Survey at Baseline (Day 1) and at the end of treatment. In Study S24 1.3.0 1 1, subjects completed the IBS-QOL Survey at Baseline (Day 1), at the end of the three-month treatment period, and at the end of rerandomized treatment.
# Other secondary efficacy parameters for all three studies included: • Responder rate for the weekly diary questions on adequate relief at each month, where a responder for a month (monthly responder) was defined as a subject who answered the weekly question with “yes” at least twice for that month. The responder rate was the percentage of responders within a treatment group. The all-month responder rate for the weekly diary questions on adequate relief was also evaluated, where an all-month responder was defined as a subject who answered the weekly question with “yes” at least twice for each month. The all-month responder rate was the percentage of all-month responders within a treatment group; • Adequate relief rate for the weekly diary questions was calculated for each subject as the number of weekly assessments with adequate relief (“yes”) divided by the total number of weekly assessments; • Percentage of subjects with adequate relief for the weekly diary questions at each week; • Daily diary questions regarding abdominal pain/discomfort (five-point scale), stool consistency (seven-point scale), stool frequency (number of bowel movements each day), straining (yes or no), urgency (five-point scale), feeling of incomplete evacuation (yes or no), and bloating or feeling of abdominal distention (five-point scale); • QOL data assessed by the IBS-QOL questionnaire; and • Question to determine the interruption of activities.
# [2] = both, human, in vivo
# Method: Diurnal variations in cilansetron pharmacokinetics have been evaluated in a randomized, double-blind, placebo-controlled, 2-way crossover study in 9 male and 9 female healthy subjects, aged 21 to 39 years. Subjects were randomized to receive 2 treatments (cilansetron 16 mg tablet and placebo) during the 2 treatment periods. During each treatment period, subjects received a single dose of their assigned treatment on the first day (Day 1), after which they received the same treatment TID for 4 days (Days 2-5). There was a 10-day washout period between treatment periods. Subjects were fasted for at least 2 hours before and following each dose, and heavy physical activity was restricted. Serial blood samples for the measurement of multiple-dose pharmacokinetics of cilansetron were collected up to 24 hours postdose on Day 5.
# [3] = both, human, in vivo; remark: listed apart in the source
# Method: In a single-dose, crossover study conducted to evaluate the potential for a drug-drug interaction between liquid Maalox and cilansetron, 12 male and 12-female subjects (aged 19-39 years) received single doses of cilansetron 16 mg alone and cilansetron 16 mg+Maalox in a crossover fashion under fasted conditions. Blood samples for measurement of plasma cilansetron pharmacokinetics were collected up to 24 hours postdose following each treatment.
# The effect of concomitantly administered antacid (liquid Maalox) on the pharmacokinetics of cilansetron has been evaluated in a single-dose, crossover study in 24 healthy, male and female subjects, aged 19 to 39 years. Subjects received the following two treatments during each of the study periods in a crossover fashion: a single oral dose of cilansetron 16 mg tablet (reference treatment); a single oral dose of cilansetron 16 mg tablet+20 mL oral Maalox liquid administered every 4 hours (test treatment; 4 doses of Maalox in total; cilansetron was administered 5 minutes after the first dose of Maalox). Both cilansetron treatments were administered under fasted conditions.
# [4] = After Meal Ingestion, 4 mg TID oral 7 days
# [5] = After Meal Ingestion, 8 mg TID oral 7 days
# [6] = After Neostigmine, 4 mg TID oral 7 days
# [7] = After Neostigmine, 8 mg TID oral 7 days
compound,measurement,setting,value
"Cc1nccn1C[C@H]1CCc2c(c3cccc4c3n2CCC4)C1=O [Cilansetron, (R)-(−)-4,5,6,8,9,10-hexahydro-10-[(2-methyl-1H-imidazol-1-yl)methyl]-11H-pyrido-[3,2,1-jk]-carbazol-11-one]",clearance,clinical,550 to 800 mL/min
same,DN-AUC(0-inf) ratio 8 mg/4 mg,clinical; male,121%
same,DN-AUC(0-inf) ratio 16 mg/4 mg,clinical; male,124%
same,DN-AUC(0-inf) ratio 16 mg/8 mg,clinical; male,102%
same,DN-AUC(0-last) ratio 8 mg/4 mg,clinical; male,123%
same,DN-AUC(0-last) ratio 16 mg/4 mg,clinical; male,126%
same,DN-AUC(0-last) ratio 16 mg/8 mg,clinical; male,102%
same,Renal elimination,clinical; male,< 1 % of dose
same,clearance,clinical; male,550 to 700 mL/min
same,half-life,clinical; male,1.4 to 1.7 h
same,AUC(0-inf),"clinical; male, 4 mg",103 ng·h/mL
same,AUC(0-t),"clinical; male, 4 mg",100 ng·h/mL
same,CL renal,"clinical; male, 4 mg",2.95 mL/min
same,Vd,"clinical; male, 4 mg",99 L
same,clearance,"clinical; male, 4 mg",680 mL/min
same,half-life,"clinical; male, 4 mg",1.7 h
same,AUC(0-inf),"clinical; male, 8 mg",254 ng·h/mL
same,AUC(0-t),"clinical; male, 8 mg",251 ng·h/mL
same,CL renal,"clinical; male, 8 mg",2.64 mL/min
same,Vd,"clinical; male, 8 mg",78 L
same,clearance,"clinical; male, 8 mg",567 mL/min
same,half-life,"clinical; male, 8 mg",1.62 h
same,AUC(0-inf),"clinical; male, 16 mg",525 ng·h/mL
same,AUC(0-t),"clinical; male, 16 mg",518 ng·h/mL
same,CL renal,"clinical; male, 16 mg",2.65 mL/min
same,Vd,"clinical; male, 16 mg",68 L
same,clearance,"clinical; male, 16 mg",564 mL/min
same,half-life,"clinical; male, 16 mg",1.41 h
same,"colonic motility index, Comparison to Placebo: Ratio",healthy subjects; [4],101%
same,colonic motility index,healthy subjects; [4],20358
same,"colonic motility index, Comparison to Placebo: Ratio",healthy subjects; [5],106%
same,colonic motility index,healthy subjects; [5],23478
same,"colonic motility index, Comparison to Placebo: Ratio",healthy subjects; [6],192%
same,colonic motility index,healthy subjects; [6],50580
same,"colonic motility index, Comparison to Placebo: Ratio",healthy subjects; [7],162%
same,colonic motility index,healthy subjects; [7],48691
same,"Subjects worsened from Baseline, IBS-QOL Overall Score",[1]; Month 3,5%
same,Percentage of Subjects Who Worsened from Baseline: IBS-QOL Overall Score,[1]; Endpoint (last post-Baseline overall score),6%
same,Percentage of Subjects Who Worsened from Baseline: IBS-QOL Overall Score,[1]; Month 3,5%
same,"IBS-QOL body image, treatment difference",[1]; vs placebo,7.43
same,"IBS-QOL dysphoria, treatment difference",[1]; vs placebo,7.34
same,"IBS-QOL food avoidance, treatment difference",[1]; vs placebo,8.92
same,"IBS-QOL health worry, treatment difference",[1]; vs placebo,3.21
same,"IBS-QOL interference with activity, treatment difference",[1]; vs placebo,9.73
same,"IBS-QOL overall score, treatment difference in mean change from Baseline at Endpoint",[1]; vs placebo,7.37
same,"IBS-QOL relationships, treatment difference",[1]; vs placebo,5.19
same,"IBS-QOL sexual, treatment difference",[1]; vs placebo,5.64
same,"IBS-QOL social reaction, treatment difference",[1]; vs placebo,6.19
same,AUC ratio 0-8 h/8-16 h,[2],"106 (99, 115) %"
same,AUC ratio 0-8 h/16-24 h,[2],"110 (103, 119) %"
same,AUC ratio 8-16 h/16-24 h,[2],"104 (96, 111) %"
same,Cmax ratio 0-8 h/8-16 h,[2],"130 (111, 153) %"
same,Cmax ratio 0-8 h/16-24 h,[2],"133 (113, 157) %"
same,Cmax ratio 8-16 h/16-24 h,[2],"102 (87, 120) %"
same,Mean Cmax higher after morning dose than mid-day and evening doses,[2]; 16 mg,30-33%
same,AUC (0-inf) Ratio (Treatment B/A),[3],100%
same,AUC (0-last) Ratio (Treatment B/A),[3],100%
same,Cmax Ratio (Treatment B/A),[3],87%
same,AUC and Cmax lower in males than in females,[3]; 16 mg,56%
same,Mean Cmax decrease with Maalox,[3]; 16 mg,13%
same,Mean half-life lower in males than in females,[3]; 16 mg,41%

# Reference: patent US20090176817A1, “Method of Treatment of Diarrhea-Predominant Irritable Bowel Syndrome in a Subject” (priority 2005, published 2009)
